Reference: patent publication US10881108B2, “Method of protecting field corn from damage by a plant pathogen” (SUMITOMO CHEMICAL COMPANY, LIMITED, priority 2019, dated 2021)

Key:
Assay type in all cases: in vivo
Cercospora zeae-maydis [1] = assay: Seed coating, then grey leaf spot inoculation; fresh weight of aerial part; conditions: seed coating 0.2 mg per seed, 20 g per hectare, 14 days from inoculation
Protocol: Seeds of field corn are coated with a mefentrifluconazole aqueous suspension concentrate so that the amount of mefentrifluconazole to be applied to each seed may be 0.2 mg. Then, the field corn seeds are sown to a pot filled with a soil at a sowing rate of 100,000 seeds per hectare. That is, the application rate of mefentrifluconazole is 20 g per hectare. Then, the field corn is incubated in a greenhouse for 10 days, followed by inoculating a pathogen of grey leaf spot (Cercospora zeae-maydis) to the foliage of field corn. The field corn is incubated in a greenhouse for 14 days from the inoculation, and then the fresh weight of the aerial part of the field corn is measured. It is confirmed that the fresh weight is equivalent to that of the control where field corn is not treated with mefentrifluconazole and the pathogen is not inoculated (no-treatment-no-inoculation control) and is bigger than that of the control where field corn is not treated with mefentrifluconazole and the pathogen is inoculated (no-treatment-inoculation control). The same procedure of the example 2 is repeated except for replacing field corn with popcorn, sweet corn, or waxy corn. It is confirmed that the fresh weight of popcorn, sweet corn, or waxy corn is smaller than that of the corresponding no-treatment-no-inoculation control and is equivalent to that of the corresponding no-treatment-inoculation control.

Cercospora zeae-maydis [2] = assay: Seed dipping, then grey leaf spot inoculation; plant length of aerial part; conditions: seed dipping 0.2 mg per seed, 200 g per hectare; for Plant length in treatment plot (A) / Treatment/control ratio (100 × A/B): 7 days from inoculation
Protocol: Seeds of three varieties of field corn were separately dipped in a mefentrifluconazole dilution liquid (prepared by diluting an aqueous suspension concentrate of mefentrifluconazole with water) so that the amount of mefentrifluconazole to be applied to each seed might be 0.2 mg. Then, the field corn seeds were sown to a pot filled with a soil at a sowing rate of 1,000,000 seeds per hectare. That is, the application rate of mefentrifluconazole was 200 g per hectare. Each field corn was incubated in a greenhouse for 12 days from the sowing, and then a pathogen of grey leaf spot (Cercospora zeae-maydis) was inoculated to the foliage of each field corn. Each field corn was incubated in a greenhouse for 7 days from the inoculation, and then plant length of the aerial part of each field corn was measured. The plant length is referred to as ‘the plant length in treatment plot’. As a control experiment, the same procedure was repeated except that dipping treatment with mefentrifluconazole dilution liquid and the inoculation of the pathogen were not conducted. The plant length obtained in the control experiment is referred to as ‘the plant length in control plot’. The same procedure of the example 4 was repeated except for replacing three varieties of field corn with a variety of popcorn, and two varieties of waxy corn.

Cercospora zeae-maydis [3] = assay: Dripping onto primary leaf, then grey leaf spot inoculation; fresh weight of aerial part; conditions: dripped onto primary leaf 0.2 mg per plant, 200 g per hectare, 14 days from inoculation
Protocol: Field corn is sown to a pot filled with a soil at a sowing rate of 1,000,000 seeds per hectare. The field corn is incubated for 10 days in a greenhouse, and then mefentrifluconazole dilution liquid (prepared by diluting an aqueous suspension concentrate of mefentrifluconazole with water) is dripped onto the primary leaf of field corn so that the amount of mefentrifluconazole to be applied to each plant may be 0.2 mg. That is, the application rate of mefentrifluconazole is 200 g per hectare. On the next day of the application, a pathogen of grey leaf spot (Cercospora zeae-maydis) is inoculated to the foliage of field corn. The field corn is incubated in a greenhouse for 14 days from the inoculation, and then fresh weight of the aerial part of the field corn is measured. It is confirmed that the fresh weight is equivalent to that of the control where field corn is not treated with mefentrifluconazole and the pathogen is not inoculated (no-treatment-no-inoculation control) and is bigger than that of the control where field corn is not treated with mefentrifluconazole and the pathogen is inoculated (no-treatment-inoculation control). The same procedure of the example 3 is repeated except for replacing field corn with popcorn, sweet corn, or waxy corn. It is confirmed that the fresh weight of popcorn, sweet corn, or waxy corn is smaller than that of the corresponding no-treatment-no-inoculation control and is equivalent to that of the corresponding no-treatment-inoculation control.

Cercospora zeae-maydis [4] = assay: Dripping onto first leaf, then grey leaf spot inoculation; plant length of aerial part; conditions: 100 g per hectare; for Plant length in treatment plot (A) / Treatment/control ratio (100 × A/B): dripped onto first leaf 0.1 mg per plant, 7 days from inoculation; for protection from the damage by the pathogen: dripped onto first leaf
Protocol: Four varieties of field corn were sown to a pot filled with a soil at a sowing rate of 1,000,000 seeds per hectare. Then each field corn was incubated for 7 days in a greenhouse. A mefentrifluconazole dilution liquid (prepared by diluting an aqueous suspension concentrate of mefentrifluconazole with water) is dripped onto the first leaf of field corn plants so that the amount of mefentrifluconazole to be applied to each plant might be 0.1 mg. That is, the application rate of mefentrifluconazole was 100 g per hectare. Five days after the application, a pathogen of grey leaf spot (Cercospora zeae-maydis) was inoculated to the foliage of each field corn. Each field corn was incubated in a greenhouse for 7 days from the inoculation, and then plant length of the aerial part of each field corn was measured. The plant length is referred to as ‘the plant length in treatment plot’. As a control experiment, the same procedure was repeated except that dripping treatment with mefentrifluconazole dilution liquid and the inoculation of the pathogen were not conducted. The plant length obtained in the control experiment is referred to as ‘the plant length in control plot’. The same procedure of the example 5 was repeated except for replacing four varieties of field corn with two varieties of popcorn, a variety of sweet corn, and two varieties of waxy corn.

Cercospora zeae-maydis [5] = assay: Foliar spray on potted corn, then grey leaf spot inoculation; fresh weight of aerial part; conditions: foliar spray 500 g per hectare, 14 days from inoculation
Protocol: Field corn is sown to a pot filled with a soil. It is incubated for 7 days in a greenhouse. Mefentrifluconazole spray liquid (prepared by diluting an aqueous suspension concentrate of mefentrifluconazole with water) is uniformly sprayed onto the foliage of field corn at the amount of 200 L per hectare so that the application rate of mefentrifluconazole may be 500 g per hectare. On the next day of the spraying, a pathogen of grey leaf spot (Cercospora zeae-maydis) is inoculated to the foliage of field corn. The field corn is incubated in a greenhouse for 14 days from the inoculation, and then fresh weight of the aerial part of the field corn is measured. It is confirmed that the fresh weight is equivalent to that of the control where field corn is not treated with mefentrifluconazole and the pathogen is not inoculated (no-treatment-no-inoculation control) and is bigger than that of the control where field corn is not treated with mefentrifluconazole and the pathogen is inoculated (no-treatment-inoculation control). The same procedure of the example 1 is repeated except for replacing field corn with popcorn, sweet corn, or waxy corn. It is confirmed that the fresh weight of popcorn, sweet corn, or waxy corn is smaller than that of the corresponding no-treatment-no-inoculation control and is equivalent to that of the corresponding no-treatment-inoculation control.

[6] = popcorn, sweet corn, or waxy corn

With `CC(O)(Cn1cncn1)c1ccc(Oc2ccc(Cl)cc2)cc1C(F)(F)F` (stereo not drawn) [mefentrifluconazole] the “fresh weight of the aerial part compared with no-treatment-inoculation control” value (Cercospora zeae-maydis [1]; field corn) was “bigger”, the “fresh weight of the aerial part compared with no-treatment-no-inoculation control” value (Cercospora zeae-maydis [1]; field corn) was “equivalent” and the “fresh weight compared with no-treatment-inoculation control” value (Cercospora zeae-maydis [1]; [6]) was “equivalent”. For the same molecule, the “fresh weight compared with no-treatment-no-inoculation control” value (Cercospora zeae-maydis [1]; [6]) was “smaller”, the “Plant length in treatment plot (A)” value (Cercospora zeae-maydis [2]; Field corn/DKC5632) was 58 cm and the “Treatment/control ratio (100 × A/B)” value (Cercospora zeae-maydis [2]; Field corn/DKC5632) was 95. The “Plant length in treatment plot (A)” value (Cercospora zeae-maydis [2]; Field corn/Koshu) was 63 cm, the “Treatment/control ratio (100 × A/B)” value (Cercospora zeae-maydis [2]; Field corn/Koshu) was 105 and the “Plant length in treatment plot (A)” value (Cercospora zeae-maydis [2]; Field corn/MAS40F) was 61 cm. For the same molecule, the “Treatment/control ratio (100 × A/B)” value (Cercospora zeae-maydis [2]; Field corn/MAS40F) was 97, the “Plant length in treatment plot (A)” value (Cercospora zeae-maydis [2]; Popcorn/Yuki-pop) was 45 cm and the “Treatment/control ratio (100 × A/B)” value (Cercospora zeae-maydis [2]; Popcorn/Yuki-pop) was 80. The “Plant length in treatment plot (A)” value (Cercospora zeae-maydis [2]; Waxy corn/Ki-mochi) was 30 cm, the “Treatment/control ratio (100 × A/B)” value (Cercospora zeae-maydis [2]; Waxy corn/Ki-mochi) was 70 and the “Plant length in treatment plot (A)” value (Cercospora zeae-maydis [2]; Waxy corn/Shiro-mochi) was 51 cm. For the same molecule, the “Treatment/control ratio (100 × A/B)” value (Cercospora zeae-maydis [2]; Waxy corn/Shiro-mochi) was 86, the “protection of field corns compared with popcorn or waxy corns” value (Cercospora zeae-maydis [2]; Tables 1 and 2) was “protected much more effectively” and the “fresh weight of the aerial part compared with no-treatment-inoculation control” value (Cercospora zeae-maydis [3]; field corn) was “bigger”. The “fresh weight of the aerial part compared with no-treatment-no-inoculation control” value (Cercospora zeae-maydis [3]; field corn) was “equivalent”, the “fresh weight compared with no-treatment-inoculation control” value (Cercospora zeae-maydis [3]; [6]) was “equivalent” and the “fresh weight compared with no-treatment-no-inoculation control” value (Cercospora zeae-maydis [3]; [6]) was “smaller”. The “Plant length in treatment plot (A)” value (Cercospora zeae-maydis [4]; Field corn/DKC5632) was 63 cm, the “Treatment/control ratio (100 × A/B)” value (Cercospora zeae-maydis [4]; Field corn/DKC5632) was 103 and the “Plant length in treatment plot (A)” value (Cercospora zeae-maydis [4]; Field corn/Koshu) was 65 cm. For the same molecule, the “Treatment/control ratio (100 × A/B)” value (Cercospora zeae-maydis [4]; Field corn/Koshu) was 108, the “Plant length in treatment plot (A)” value (Cercospora zeae-maydis [4]; Field corn/MAS40F) was 64 cm and the “Treatment/control ratio (100 × A/B)” value (Cercospora zeae-maydis [4]; Field corn/MAS40F) was 102. For the same molecule, the “Plant length in treatment plot (A)” value (Cercospora zeae-maydis [4]; Field corn/Pioneer 2088) was 62 cm, the “Treatment/control ratio (100 × A/B)” value (Cercospora zeae-maydis [4]; Field corn/Pioneer 2088) was 103 and the “Plant length in treatment plot (A)” value (Cercospora zeae-maydis [4]; Popcorn/Maru-pop) was 45 cm. The “Treatment/control ratio (100 × A/B)” value (Cercospora zeae-maydis [4]; Popcorn/Maru-pop) was 80, the “Plant length in treatment plot (A)” value (Cercospora zeae-maydis [4]; Popcorn/Yuki-pop) was 53 cm and the “Treatment/control ratio (100 × A/B)” value (Cercospora zeae-maydis [4]; Popcorn/Yuki-pop) was 84. For the same molecule, the “Plant length in treatment plot (A)” value (Cercospora zeae-maydis [4]; Sweet corn/Rancher 82) was 31 cm, the “Treatment/control ratio (100 × A/B)” value (Cercospora zeae-maydis [4]; Sweet corn/Rancher 82) was 91 and the “Plant length in treatment plot (A)” value (Cercospora zeae-maydis [4]; Waxy corn/Ki-mochi) was 29 cm. The “Treatment/control ratio (100 × A/B)” value (Cercospora zeae-maydis [4]; Waxy corn/Ki-mochi) was 67, the “Plant length in treatment plot (A)” value (Cercospora zeae-maydis [4]; Waxy corn/Shiro-mochi) was 43 cm and the “Treatment/control ratio (100 × A/B)” value (Cercospora zeae-maydis [4]; Waxy corn/Shiro-mochi) was 73. The “protection from the damage by the pathogen” value (Cercospora zeae-maydis [4]; each field corn (four varieties), Table 3) was “successfully protected”, the “protection from the damage by the pathogen” value (Cercospora zeae-maydis [4]; popcorns, sweet corn and waxy corns, Table 4) was “not successfully protected” and the “fresh weight of the aerial part compared with no-treatment-inoculation control” value (Cercospora zeae-maydis [5]; field corn) was “bigger”. For the same molecule, the “fresh weight of the aerial part compared with no-treatment-no-inoculation control” value (Cercospora zeae-maydis [5]; field corn) was “equivalent”, the “fresh weight compared with no-treatment-inoculation control” value (Cercospora zeae-maydis [5]; [6]) was “equivalent” and the “fresh weight compared with no-treatment-no-inoculation control” value (Cercospora zeae-maydis [5]; [6]) was “smaller”.
